Experiments:
[1] = system: Plasmodium berghei sporozoites; assay: Mouse model of malaria infection: sporozoite challenge after vaccination; format: in vivo
Method: FIG. 3 provides a graphical representation showing that LPX-mRNA vaccines containing CI058 induce functional liver TRM responses that protect from Plasmodium berghei infection. The function of TRM induced with LPX vaccines containing CI058 was tested in a mouse model of malaria infection, which is known to require liver TRM cells to provide protection against infection. Analysis was in C57BL/6 mice with LPX-mOVA versus LPX-mOVA-CI058 vaccines, with prior transfer of OT-I cells to enhance T cell precursor frequency, and challenge was with P. berghei sporozoites from a parasite strain modified to express OVA. (A) Groups of mice (n=12-15) were subject to vaccination only. Percentages of TRM, TEM and TCM OT-I cells in each treatment group determined in liver 30 days later, assessed as in FIG. 1. Black bars: TRM cells; white bars: TEM cells; grey bars: TCM cells. […] (D) Groups of mice were subject to vaccination followed by challenge with 200 OVA-expressing P. berghei sporozoites 30 days later, and parasitemia was measured 6, 7,8, 10 and 12 days after infection. […] Groups of mice (n=12-15) were subject to vaccination, and then percentages of TRM cells, TEM cells and TCM cells in each treatment group were evaluated in liver 30 days later by flow cytometry using MHC/peptide tetramers containing a defined CD8 T cell epitope from RLP6, using gating strategy in FIG. 2. […]

[2] = system: tissue-resident memory T cells (TRM cells); assay: LPX-mRNA vaccination of mice i.v.; antigen-specific TRM, TEM and TCM cells in liver and spleen by flow cytometry; format: in vivo, C57BL/6 mice

CCCCCCCCCCCCCCCCCCCCCCCCCC(=O)N[C@@H](CO[C@H]1O[C@H](CSCC(=O)Nc2ccc(C3=C4C(C)=CC(C)=[N+]4[B-](F)(F)n4c(C)cc(C)c43)cc2)[C@H](O)[C@H](O)[C@H]1O)[C@H](O)[C@H](O)CCCCCCCCCCCCCC [CI058, (2S,3S,4R)-1-(6-Deoxy-6-((2-((4-(5,5-difluoro-1,3,7,9-tetramethyl-5H-4λ4,5λ4-dipyrrolo[1,2-c:2′,1′-f][1,3,2]diazaborinin-10-yl)phenyl)amino)-2-oxoethyl)thio)-α-D-galactopyranosyloxy)-2-hexacosanoylamino-3,4-octadecandiol]
protection against sporozoite challenge ([1]; 200 OVA-expressing P. berghei sporozoites 30 days after LPX-mOVA vaccination, OT-I transfer): provide protection against challenge with P. berghei sporozoites
blood parasitemia ([1]; after challenge with OVA-expressing P. berghei sporozoites): significantly limit blood parasitemia
overall TRM cell accumulation in the liver ([2]; agonist in LPX-mOVA vaccine, OT-I transfer, liver 30 days later): significantly better at inducing accumulation of TRM cells
proportion of liver TRM among all vaccine-induced antigen-specific T cells (TRM cell-inducing capability) ([2]; agonist in LPX-mOVA vaccine, OT-I transfer, liver 30 days later, relative to α-GalCer vaccine): superior liver TRM cell-inducing agonist
proportion of antigen-specific TRM cells, liver vs spleen ([2]; malaria model vaccination, LPX-mOVA with CI058, 30 days): significant changes in proportion of antigen-specific TRM cells, which is more pronounced in liver compared to spleen
